Counter-ions that a name gives are not always drawn.
Experiment: Solubility testing of paroxetine hydrochloride in liquid carriers/solvents
Assay type: physicochemical
Description: Since solid paroxetine forms are in general only sparingly soluble in common solvents, the solvents which are acceptable for use in capsules and for administration to patients need to be subjected to routine solubility testing to confirm that they can maintain an appropriate concentration of paroxetine. In addition, higher loadings of a paroxetine form in a suitable solvent may be achieved by using conventional physical techniques such as heating, shaking and sonication. Alternatively good solvents for paroxetine may be used in small amounts as cosolvents to solubilize paroxetine in liquids that are acceptable for capsule use but in which paroxetine is poorly soluble. Solubilising agents such as the polysorbates, the poloxamers, cyclodextrins, ionic and non-ionic surface active agents, for example Pluronic F60 and Sorbitan esters may also be used to enhance the solubility of paroxetine hydrochloride in solvents acceptable for capsule use but in which paroxetine is poorly soluble.
The term “oral swallow capsule” most suitably denotes a capsule having a maximum volume of 0.86 ml. Preferred capsules according to the present invention have a maximum volume of about 0.45 ml and more especially may lie in the range 0.2 to 0.4 ml, although capsules as small as 0.14 ml are also provided by the invention. […]

| solubility (oil or lipid, in plant oils (Sunflower, Safflower, Peanut, Soybean, Cottonseed, Corn, Castor, Apricot seed, Olive, Wheat germ, Sesame, Evening Primrose, Canola), Mineral oil, liquid paraffin, Miglyol 810/812, Oleic acid, Ethyl Oleate, Span 80/85, Labrafac lipophile, Plurol Oleique, Peceol) | solubility (in words) (in Propylene Carbonate, Triacetin, Glycerol, Lauroglycol, Propylene glycol, PEG 300, Glycofurol, PEG 400, IPA, Span 20, Transcutol, Labrasol, Labrafil, Olepal, Glyceryl Linoleate (Maisine 35-1), Pharmasolve) | Compound |
| --- | --- | --- |
| < 10000 µg/mL |  | Fc1ccc([C@@H]2CCNC[C@H]2COc2ccc3c(c2)OCO3)cc1 [paroxetine hydrochloride] |
|  | useful solubility | Fc1ccc([C@@H]2CCNC[C@H]2COc2ccc3c(c2)OCO3)cc1 [paroxetine, (−)trans isomer of 4-(4′-fluorophenyl)-3-(3′,4′-methylenedioxy-phenoxymethyl)-piperidine] |

From patent publication US20020032220A1, “Formulations comprising dissolved paroxetine” (SmithKline Beecham plc, priority 1997, published 2002)
